According to ChEMBL document CHEMBL5532680, “Identification of a Sonically Activated Degrader of Methionine Adenosyltransferase 2A by an in Silico Approach Assisted with the Hole-Electron Analysis” (J Med Chem, 2024):
Active and inactive are the calls of the source. No cut-off for these calls is given here.

Legend:
[1] = Induction of ROS generation in PBS at 10 uM incubated for 10 mins under 1.0 MHz, 1.2W/cm2 ultrasound treatment by DCFH staining based fluorescence assay; type: functional
HCT-116 = experiment: Induction of apoptosis in MTAP knocked out human HCT-116 cells at 0.1 uM preincubated for 24 hrs followed by sonication for 4 mins by annexin V-FITC/PI staining based flow cytometry analysis relative to control; type: functional, cell-based; settings: time 1444.0 min

Structure (SMILES)	Activity [1]	Activity (HCT-116)
CCOc1ncc2cc(-c3ccc4c(c3)OCC3(CCN(C)CC3)O4)c(=O)n(-c3ccc(OC(F)F)cc3)c2n1	Active	
CCOc1ncc2cc(-c3ccc4nc5n(c4c3)CCN(C)C5)c(=O)n(-c3ccc(OC(F)F)cc3)c2n1	inactive	Active
CCOc1ncc2cc(-c3ccc4c(c3)C3(CC3)CO4)c(=O)n(-c3ccc(OC(F)F)cc3)c2n1	Active	
CCOc1ncc2cc(-c3ccc4nc5n(c4c3)CCN(C(C)=O)C5)c(=O)n(-c3ccc(OC(F)F)cc3)c2n1	inactive	
